The source of these data is patent US9334263B2, “Compositions useful for treating disorders related to kit” (BLUEPRINT MEDICINES CORPORATION, priority 2013, dated 2016).

Structures are written as SMILES.

Assay [1] concerns the target T1, Kit D816V (HMC1.2 cells, Kit V560G and D816V) (Homo sapiens, UniProt P10721, D816V/V560G).
T1 construct: endogenous in cells; host or cells: HMC1.2 cells
The experiment in a line: HMC1.2 autophosphorylation assay (AlphaLISA, phospho-Y719 c-Kit). The class given is cell-based. The note with it: Kit autophosphorylation at tyrosine 719, 90 minutes, read-out: Cellular Activity. Here is the method:
HMC1.2 Autophosphorylation Assay:
10,000 HMC1.2 cells were incubated in 22 ul culture media (phenol-red free IMDM, no serum) in each well of a 384-well plate and serum starved overnight in a tissue culture incubator (5% CO2, 37° C.). A 10-point dose concentration series of compound (25 uM-95.4 pM) were then added to the cells in a volume of 3.1 ul to each well (0.25% DMSO final concentration). After 90 minutes, 6 ul of 5× AlphaLISA Lysis Buffer (Perkin Elmer) supplemented with a protease and phosphatase inhibitor cocktail (Cell Signaling Technologies) was added to each well and shaken at 450 rpm for 15 minutes at 4° C. 10 ul of phospho-Y719 c-Kit and total c-Kit antibodies (15 nM final concentration, Cell Signaling Technologies) and 50 ug/ml AlphaLISA rabbit acceptor beads (Perkin Elmer) were added to each well and shaken at 300 rpm at room temperature for 2 hours. 10 ul of 100 ug/ml streptavidin donor beads (Perkin Elmer) were added to each well, blocked from light with aluminum adhesive and shaken at 300 rpm at room temperature for 2 hours. Fluorescence signal was obtained on Envision (Perkin Elmer) by AlphaScreen 384 well HTS protocol.
This cell line contains Kit mutated at positions V560G and D816V resulting in constitutive activation of the kinase. The following compounds were tested in an assay to measure direct inhibition of Kit D816V kinase activity by assaying Kit autophosphorylation at tyrosine 719 on the Kit protein.
On the technique in general: In Alpha technology, singlet oxygen from a donor bead excites a nearby acceptor bead.

The target of the next assay is T2, D816V Kit (Homo sapiens, UniProt P10721, D816V).
T2 construct: purchased Carna Bioscience 08-156
T2 sequence (P10721 26-976 D816V): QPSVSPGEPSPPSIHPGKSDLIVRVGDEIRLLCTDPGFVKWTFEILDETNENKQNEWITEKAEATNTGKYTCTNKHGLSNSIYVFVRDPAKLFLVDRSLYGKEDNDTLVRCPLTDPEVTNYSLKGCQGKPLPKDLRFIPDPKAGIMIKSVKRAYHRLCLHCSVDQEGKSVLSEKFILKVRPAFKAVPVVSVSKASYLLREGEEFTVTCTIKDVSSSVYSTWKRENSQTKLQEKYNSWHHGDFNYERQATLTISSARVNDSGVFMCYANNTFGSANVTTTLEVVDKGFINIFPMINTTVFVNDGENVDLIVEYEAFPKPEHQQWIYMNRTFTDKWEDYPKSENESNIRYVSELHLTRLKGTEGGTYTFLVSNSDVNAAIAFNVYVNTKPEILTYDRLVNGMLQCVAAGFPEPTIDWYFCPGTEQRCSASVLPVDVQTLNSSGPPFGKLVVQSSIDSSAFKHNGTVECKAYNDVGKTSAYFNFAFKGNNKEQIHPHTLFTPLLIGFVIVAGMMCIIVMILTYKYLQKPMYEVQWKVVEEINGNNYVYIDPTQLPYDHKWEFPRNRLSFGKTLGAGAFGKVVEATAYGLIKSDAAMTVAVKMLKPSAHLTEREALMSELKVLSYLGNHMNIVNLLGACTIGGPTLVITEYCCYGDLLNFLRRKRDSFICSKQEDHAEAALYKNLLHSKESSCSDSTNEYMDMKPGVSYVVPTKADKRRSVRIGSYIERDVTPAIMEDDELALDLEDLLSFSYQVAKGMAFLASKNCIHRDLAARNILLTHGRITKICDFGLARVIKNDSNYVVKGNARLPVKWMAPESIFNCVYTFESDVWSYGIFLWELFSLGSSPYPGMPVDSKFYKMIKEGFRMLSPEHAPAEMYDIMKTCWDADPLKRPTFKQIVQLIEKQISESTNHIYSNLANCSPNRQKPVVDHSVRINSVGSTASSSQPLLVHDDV
Briefly: Kit D816V assay at Km (Caliper electrophoretic mobility shift). The following applies: 15 uM ATP, 25 C, 90 minutes. The class given is biochemical. Here is the method:
In order to assess the activity of chemical compounds against the relevant kinase of interest, the Caliper LifeSciences electrophoretic mobility shift technology platform is used. Fluorescently labeled substrate peptide is incubated in the presence of kinase and ATP so that a […] proportion of the peptide is phosphorylated. At the end of the reaction, the mix of phosphorylated (product) and non-phosphorylated (substrate) peptides are passed through the microfluidic system of the Caliper EZ Reader 2, under an applied potential difference. The presence of the phosphate group on the product peptide provides a difference in mass and charge between those of the substrate peptide, resulting in a separation of the substrate and product pools in the sample. As the pools pass a LEDS within the instrument, these pools are detected and resolved as separate peaks. The ratio between these peaks therefore reflects the activity of the chemical matter at that concentration in that well, under those conditions.
The reaction was stopped by the addition of 70 ul of Stop buffer (100 mM HEPES pH 7.5, 0.015% Brij 35, 35 mM EDTA and 0.2% of Coating Reagent 3 (Caliper Lifesciences)). The plate was then read on a Caliper EZReader 2 (protocol settings: −1.9 psi, upstream voltage −700, downstream voltage −3000, post sample sip 35 s).

T1 sequence (P10721 26-976 V560G/D816V): as the sequence (P10721 26-976 D816V) above, with V535G counted along it

With `Cn1cc(Nc2ncnc(N3CCN(c4ncc([C@@](C)(O)c5ccc(F)cc5)cn4)CC3)n2)cn1` (single isomer, unassigned) [Compound 38], the IC50 in assay [1] is 10 to 100 nM; on D816V Kit it was less than 1 nM.
In the case of `C[C@@](O)(c1ccc(F)cc1)c1cnc(N2CCN(c3ncnc(Nc4cnn(C[C@@H]5CNCCO5)c4)n3)CC2)nc1` (single isomer, unassigned) [Compound 270], at D816V Kit, the IC50 fell in the range of 1.01 to 10 nM.
Still for that read-out and setting: with `CNc1ncnc(N2CCN(c3ncc(Cc4ccccc4)c(N)n3)CC2)n1` [Compound 1] the figure was more than 100 nM.
For the molecule `c1cnc(N2CCN(c3ncnc(Nc4ccc5c(c4)CNCC5)n3)CC2)nc1` [Compound 2], the IC50 in assay [1] lay within 1000 to 10000 nM; at D816V Kit, 1.01 to 10 nM.
As to `Nc1nc(N2CCN(c3ncnc(NC4CC4)n3)CC2)ncc1Cc1ccccc1` [Compound 3], the IC50 at D816V Kit is more than 100 nM.
For `c1cnc(N2CCN(c3ncnc(Nc4cnn(C[C@@H]5CNCCO5)c4)n3)CC2)nc1` [Compound 6], the IC50 was more than 10000 nM in assay [1] and more than 100 nM on D816V Kit.
As for `Clc1ncc(N2CCN(c3ncnc(Nc4ccc5c(c4)CNCC5)n3)CC2)nn1` [Compound 8], the IC50 at D816V Kit was in the range of 10 to 100 nM.
The same measure, in the same setting: with `Cc1cc(Nc2ncnc(N3CCN(c4ncc(Cc5ccccc5)cn4)CC3)n2)no1` [Compound 11] the figure was 10 to 100 nM.
Consider `COc1cc(Nc2ncnc(N3CCN(c4ncc(Cc5ccccc5)cn4)CC3)n2)ccn1` [Compound 17], for which the IC50 in assay [1] is 1000 to 10000 nM; on D816V Kit, 1.01 to 10 nM.
For the molecule `Clc1ncc(N2CCN(c3ncnc(Nc4cnn(CC5CNCCO5)c4)n3)CC2)nn1` (centres unmarked) [Compound 18], the IC50 in assay [1] was more than 10000 nM; on D816V Kit it was more than 100 nM.
For `c1nc(Nc2cnn(CC3CNCCO3)c2)nc(N2CCN(c3ncc(C4CC4)cn3)CC2)n1` (centres unmarked) [Compound 19] the same measures were more than 10000 nM and 10 to 100 nM.
`Cc1[nH]ncc1Nc1ncnc(N2CCN(c3ncc(Sc4ccccc4F)cn3)CC2)n1` [Compound 20]: the IC50 was 10 to 100 nM in assay [1] and less than 1 nM at D816V Kit.
As for `c1ccc(Cc2cnc(N3CCN(c4ncnc(Nc5ccc6cn[nH]c6c5)n4)CC3)nc2)cc1` [Compound 21], the results for the IC50 (in assay [1]; at D816V Kit) were 100 to 1000 nM and 1.01 to 10 nM, respectively.
For `c1ccc(Cc2cnc(N3CCN(c4ncnc(Nc5cnn(C6CNC6)c5)n4)CC3)nc2)cc1` [Compound 27], the IC50 in assay [1] fell in the range of 10 to 100 nM; at D816V Kit it was 1.01 to 10 nM.
For `c1ccc(Cc2cnc(N3CCN(c4ncnc(Nc5cnn(C6COC6)c5)n4)CC3)nc2)cc1` [Compound 28] the same measures were 10 to 100 nM and less than 1 nM.
For `C[C@](N)(c1ccc(F)cc1)c1cnc(N2CCN(c3ncnc(Nc4ccccc4)n3)CC2)nc1` [Compound 29] the same measures were 10 to 100 nM and less than 1 nM.
The like results for `C[C@@H](O)Cn1cc(Nc2ncnc(N3CCN(c4ncc(Cc5ccccc5)cn4)CC3)n2)cn1` [Compound 32] were, in that order, 10 to 100 nM and 1.01 to 10 nM.
For the molecule `C[C@H](O)Cn1cc(Nc2ncnc(N3CCN(c4ncc(Cc5ccccc5)cn4)CC3)n2)cn1` [Compound 33], the figures for the IC50 (in assay [1]; at D816V Kit) were 10 to 100 nM and 1.01 to 10 nM, respectively.
Consider `Nc1nc(N2CCN(c3ncnc(Nc4cnn(CC5CNCCO5)c4)n3)CC2)ncc1Cl` (centres unmarked) [Compound 34], for which the IC50 is 1000 to 10000 nM in assay [1] and 10 to 100 nM on D816V Kit.
The like results for `CN1CCC(CCNc2ncnc(N3CCN(c4ncc(Cc5ccccc5)cn4)CC3)n2)CC1` [Compound 35] were, in that order, more than 10000 nM and more than 100 nM.
The like results for `Cn1cc(Nc2ncnc(N3CCN(c4ncc([C@@](C)(N)c5ccc(F)cc5)cn4)CC3)n2)cn1` [Compound 36] were, in that order, less than 10 nM and less than 1 nM.
Consider `Cn1cc(Nc2ncnc(N3CCN(c4ncc([C@](C)(O)c5ccc(F)cc5)cn4)CC3)n2)cn1` [Compound 39], for which the IC50 is 10 to 100 nM in assay [1] and less than 1 nM at D816V Kit.
The like results for `c1cncc(Cc2cnc(N3CCN(c4ncnc(Nc5ccc6c(c5)CNCC6)n4)CC3)nc2)c1` [Compound 45] were, in that order, 10 to 100 nM and 1.01 to 10 nM.
For `OCC(O)c1ccc(Nc2ncnc(N3CCN(c4ncc(Cc5ccccc5)cn4)CC3)n2)cc1` (centres unmarked) [Compound 55] the same measures were 10 to 100 nM and less than 1 nM.
As for `OCCNc1ccc(Nc2ncnc(N3CCN(c4ncc(Cc5ccccc5)cn4)CC3)n2)cn1` [Compound 58], the IC50 in assay [1] fell in the range of 100 to 1000 nM; on D816V Kit it was 1.01 to 10 nM.
For `CC(C)(O)Cn1cc(Nc2ncnc(N3CCN(c4ncc(Cc5ccccc5)cn4)CC3)n2)cn1` [Compound 62] the same measures were 10 to 100 nM and less than 1 nM.
In the case of `C(#CC1CC1)c1cnc(N2CCN(c3ncnc(Nc4cnn(C[C@@H]5CNCCO5)c4)n3)CC2)nc1` [Compound 63, (S)-4-(4-(5-(cyclopropylethynyl)pyrimidin-2-yl)piperazin-1-yl)-N-(1-(morpholin-2-ylmethyl)-1H-pyrazol-4-yl)-1,3,5-triazin-2-amine], the IC50 on D816V Kit is more than 100 nM.
With `OC[C@@H](O)Cn1cc(Nc2ncnc(N3CCN(c4ncc(Cc5ccccc5)cn4)CC3)n2)cn1` [Compound 65], the IC50 in assay [1] was 10 to 100 nM; at D816V Kit it was less than 1 nM.
As for `OC[C@H](O)Cn1cc(Nc2ncnc(N3CCN(c4ncc(Cc5ccccc5)cn4)CC3)n2)cn1` [Compound 66], the IC50 is 10 to 100 nM in assay [1] and less than 1 nM at D816V Kit.
In the case of `c1nc(Nc2cnn(C[C@@H]3CNCCO3)c2)nc(N2CCN(c3ncc(CCC4CC4)cn3)CC2)n1` [Compound 67], on D816V Kit, the IC50 was 10 to 100 nM.
Take `Cc1nc(N2CCN(c3ncnc(Nc4ccc5c(c4)CNCC5)n3)CC2)ncc1Cc1ccccc1` [Compound 70]: the IC50 in assay [1] fell in the range of 100 to 1000 nM; on D816V Kit, 1.01 to 10 nM.
The like results for `CC(c1ccccc1)c1cnc(N2CCN(c3ncnc(Nc4ccc5c(c4)CNCC5)n3)CC2)nc1` (centres unmarked) [Compound 71] were, in that order, 10 to 100 nM and less than 1 nM.
The like results for `c1ccc(Cc2cnc(N3CCN(c4ncnc(Nc5ccc6c(c5)CCCNC6)n4)CC3)nc2)cc1` [Compound 72] were, in that order, 10 to 100 nM and less than 1 nM.
The like results for `c1ccc(Cc2cnc(N3CCN(c4ncnc(Nc5ccc(OC6CNC6)cc5)n4)CC3)nc2)cc1` [Compound 77] were, in that order, 10 to 100 nM and 1.01 to 10 nM.
Consider `Nc1nc(N2CCN(c3ncnc(Nc4cnc5c(c4)CNCC5)n3)CC2)ncc1Cc1ccccc1` [Compound 78], for which the figures for the IC50 (in assay [1]; on D816V Kit) were 10 to 100 nM and less than 1 nM, respectively.
For `OC1(c2ccc(Nc3ncnc(N4CCN(c5ncc(Cc6ccccc6)cn5)CC4)n3)cc2)COC1` [Compound 79] the same measures were 10 to 100 nM and 1.01 to 10 nM.
The like results for `Fc1cccc(Cc2cnc(N3CCN(c4ncnc(Nc5ccc6c(c5)CNCC6)n4)CC3)nc2)c1` [Compound 80] were, in that order, 10 to 100 nM and 1.01 to 10 nM.
Take `C[C@H](O)CNc1ccc(Nc2ncnc(N3CCN(c4ncc(Cc5ccccc5)cn4)CC3)n2)cc1` [Compound 81]: the IC50 in assay [1] was 10 to 100 nM; on D816V Kit, less than 1 nM.
For `C[C@@H](O)CNc1ccc(Nc2ncnc(N3CCN(c4ncc(Cc5ccccc5)cn4)CC3)n2)cc1` [Compound 82] the same measures were 10 to 100 nM and less than 1 nM.
Consider `Nc1nc(N2CCN(c3ncnc(Nc4cnn(CC5CN(C=O)CCO5)c4)n3)CC2)ncc1Cl` (centres unmarked) [Compound 90], for which the IC50 on D816V Kit lay in the range of 10 to 100 nM.
Still for that read-out and setting: the value for `CC(O)c1ccc(Nc2ncnc(N3CCN(c4ncc([C@@](C)(N)c5ccc(F)cc5)cn4)CC3)n2)cc1` (some centres unmarked) [Compound 140] was less than 1 nM; that for `Cc1c(Nc2ncnc(N3CCN(c4ncc(Br)cn4)CC3)n2)cnn1C[C@@H]1CNCCO1` [Compound 142] was 10 to 100 nM; that for `C[C@@H]1CN(c2ncnc(Nc3cnn(C[C@@H]4CNCCO4)c3)n2)CCN1c1ncc(Br)c(N)n1` [Compound 194] was 10 to 100 nM.
For the molecule `OC[C@H]1CN(c2ncnc(Nc3cnn(CC4CNCCO4)c3)n2)CCN1c1ncc(Cc2ccccc2)cn1` (some centres unmarked) [Compound 247], at D816V Kit, the IC50 lay within 10 to 100 nM.
With `FC(F)(c1ccccc1)c1cnc(N2CCN(c3ncnc(Nc4cnn(C[C@@H]5CNCCO5)c4)n3)CC2)nc1` [Compound 254], at D816V Kit, the IC50 lay in the range of 1.01 to 10 nM.
